≈ marks a conversion by molar mass, not a printed value.
Columns and labels:
E. coli = assay: Propensity of bacterial resistance development (serial passage at 0.5 MIC); assay type: cell-based, Escherichia coli
Description: It is crucial to evaluate the potential emergence of resistance from these compounds. […] The process was repeated for 16 passages. […] However, E. coli became resistant to FFC after only a few days. Therefore, these conjugates can be to combat drug-resistant bacteria.
Compound E6 was used to evaluate the tendency of developing bacterial resistance towards the florfenicol-polyarginine conjugates. The control antibiotic florfenicol was chosen for E. coli. MIC of E6 and florfenicol for 24 h were determined against E. coli., and then 0.5 MIC of E6 and florfenicol was challenged repeatedly against E. coli. After the initial MIC experiment, serial passage was investigated by transferring the growing bacterial suspension at sub-MIC of the compounds (MIC/2) and MIC in every passage was determined again. The process was repeated for 16 passages. The MICs for E6 and florfenicol corresponding to days were draw into figure to determine the propensity of bacterial resistance development.

MRSA (ATCC 43300) = assay: microbe, parasite or virus in culture; assay type: cell-based, methicillin-resistant S. aureus; conditions: Staphylococcus aureus; MRSA (ATCC 43300), MHB; read-out: MIC
Description: (§1) All the florfenicol-polyarginine conjugates were tested against Gram-positive and Gram-negative bacteria, including MRSA (ATCC 43300), S. aureus (ATCC 25923), E. coli (ATCC 25922), clinical strains of E. coli (2019XJ06, 2019XJ25, 2018XJ108, 2018XJ105, 2018XJ30) and clinical strains of florfenicol resistant E. coli (2017XJ30, 2019XJ20).
(§2) Gram-negative E. coli (ATCC 25922), clinical strains of E. coli (2019XJ06, 2019XJ25, 2018XJ108, 2018XJ105, 2018XJ30) and clinical strains of florfenicol resistant E. coli (2017XJ30, 2019XJ20) and Gram-positive MRSA (ATCC 43300) and S. aureus (ATCC 25923) were maintained in 50% glycerol at −80°C up to the time of use. The bacterial strains were cultured in Muller-Hinton broth (Guangdong Huan Kai Microbial Sci. &Tech. Co., Ltd. in China) media. Mueller-Hinton agar (Guangdong Huan Kai Microbial Sci. & Tech. Co., Ltd. in China) was used as growth medium in solid media.
(§3) CLSI guidelines were followed for determining MICs of all florfenicol-polyarginine conjugates by the broth microdilution method. The required bacterial (E. coli, S. aureus and MRSA) single colony was inoculated into Muller-Hinton broth (MHB) and cultured for 4–6 h. And then, the bacteria were adjusted to 10^6 CFU/ml in cultures. All compounds were prepared into a stock solution at a concentration of 0.1 mol/L with DMSO. The stock solutions were then diluted to required concentration (100, 50, 25, 12.5, 6.25, 3.125, 1.56, 0.78, 0.39 μmol/L) with MHB media. Subsequently, a 96 well plate was filled with these dilutions and 10^6 CFU/ml bacterial suspension. The diluted compounds of different concentrations (100 µl) were first added to 96 well plate, and then 100 µl bacterial dilutions (10^6 CFU/ml) was added. The negative and positive controls were 200 µl of MHB media and 100 µl of bacterial suspension combined with 100 µl of MHB media, respectively. The experiment of each compound was repeated three times, and each experiment was at least twice repeated. The 96 well plates were incubated at 37°C for 16–24 h. MIC indicated antibacterial activity. Florfenicol was used as a control drug.

[1] = tested on: E. coli clinical strain 2018XJ30; assay: microbe, parasite or virus in culture; assay type: cell-based, Escherichia coli; conditions: Escherichia coli; clinical E. coli 2018XJ30, MHB; read-out: MIC
Description: as §1, §2, §3

[2] = tested on: E. coli clinical strain 2019XJ25; assay: microbe, parasite or virus in culture; assay type: cell-based, Escherichia coli; conditions: Escherichia coli; clinical E. coli 2019XJ25, MHB; read-out: MIC
Description: as §1, §2, §3

[3] = tested on: E. coli clinical strain 2018XJ105; assay: microbe, parasite or virus in culture; assay type: cell-based, Escherichia coli; conditions: Escherichia coli; clinical E. coli 2018XJ105, MHB; read-out: MIC
Description: as §1, §2, §3

[4] = tested on: florfenicol resistant E. coli clinical strain 2019XJ20; assay: microbe, parasite or virus in culture; assay type: cell-based, Escherichia coli; conditions: Escherichia coli; florfenicol resistant E. coli 2019XJ20, MHB; read-out: MIC
Description: as §1, §2, §3

[5] = tested on: E. coli clinical strain 2019XJ06; assay: microbe, parasite or virus in culture; assay type: cell-based, Escherichia coli; conditions: Escherichia coli; clinical E. coli 2019XJ06, MHB; read-out: MIC
Description: as §1, §2, §3

E.coli (ATCC 25922) = assay: microbe, parasite or virus in culture; assay type: cell-based, Escherichia coli; conditions: Escherichia coli, ATCC25922; E.coli (ATCC 25922), MHB; read-out: MIC
Description: as §1, §2, §3

[6] = tested on: E. coli clinical strain 2018XJ108; assay: microbe, parasite or virus in culture; assay type: cell-based, Escherichia coli; conditions: Escherichia coli; clinical E. coli 2018XJ108, MHB; read-out: MIC
Description: as §1, §2, §3

[7] = tested on: florfenicol resistant E. coli clinical strain 2017XJ30; assay: microbe, parasite or virus in culture; assay type: cell-based, Escherichia coli; conditions: Escherichia coli; florfenicol resistant E. coli 2017XJ30, MHB; read-out: MIC
Description: as §1, §2, §3

S. aureus (ATCC 292130) = assay: microbe, parasite or virus in culture; assay type: cell-based, Staphylococcus aureus; conditions: Staphylococcus aureus, ATCC292130; S. aureus (ATCC 292130), MHB; read-out: MIC
[8] = tested on: 10 strains tested (E. coli, S. aureus, MRSA, clinical E. coli strains); assay: microbe, parasite or virus in culture; assay type: cell-based; conditions: Escherichia coli; against the 10 strains tested; read-out: MIC
Description: as §1, §2, §3

MIC [8] [µM] | Structure (SMILES) | change of MIC after 16 passages (E. coli) [fold] | MIC (MRSA (ATCC 43300)) [µM] | MIC [1] [µM] | MIC [2] [µM] | MIC [3] [µM] | MIC [4] [µM] | MIC [5] [µM] | MIC (E.coli (ATCC 25922)) [µM] | MIC [6] [µM] | MIC [7] [µM] | MIC (S. aureus (ATCC 292130)) [µM]
 | CS(=O)(=O)c1ccc([C@@H](O)[C@@H](CF)NC(=O)C(Cl)Cl)cc1 [Florfenicol] | 2 | 6.25 (≈ 2.24 µg/mL) | 6.25 (≈ 2.24 µg/mL) | 6.25 (≈ 2.24 µg/mL) | 6.25 (≈ 2.24 µg/mL) | > 100 | 6.25 (≈ 2.24 µg/mL) | 6.25 (≈ 2.24 µg/mL) | 6.25 (≈ 2.24 µg/mL) | > 100 | 6.25 (≈ 2.24 µg/mL)
> 100 | CS(=O)(=O)c1ccc([C@@H](OC(=O)CCCCC(=O)O)[C@@H](CF)NC(=O)C(Cl)Cl)cc1 [Compound C3] |  | > 100 | > 100 | > 100 | > 100 | > 100 | > 100 | > 100 | > 100 | > 100 | > 100

From PMC9284121, “Florfenicol-Polyarginine Conjugates Exhibit Promising Antibacterial Activity Against Resistant Strains” (Frontiers in Chemistry, 2022)
